Key:
[1] = test system: human oral cancer cells SAS xenografts; assay: Tumor growth in human oral cancer SAS xenograft mice; assay type: in vivo, BALB/c nude (nu/nu) mice; settings: 5 successive days
Protocol: (§1) FIGS. 6A-6C show oral administration of ginsenoside M1 reduced human oral cancer growth in mice. Human oral cancer cell line SAS cells Xenografts mice with tumor size around 40˜60 mm^3 were given a daily oral administration of either ginsenoside M1 (30-90 mg/kg) or vehicle for 5 successive days. (FIG. 6A) The tumor volume was determined by measurement of the length (L) and width (W) of the tumor and calculated as tumor volume (mm3)=(L×W^2)/2. (FIG. 6B) The tumor weight was measured after the mice were scarified. (FIG. 6C) The body weight of mice was recorded. The data were expressed as mean±SD; n=6. ** and *** indicate a significant difference at the level of p<0.01 and p<0.001, respectively, compared to vehicle-control mice. (One-way ANOVA with Dunnett's multiple comparisons test).
(§2) FIGS. 7A-7C show subcutaneous (SC) injection of ginsenoside M1 reduced human oral cancer growth in mice. Human oral cancer cell line SAS cells Xenografts mice with tumor size around 40˜60 mm^3 were given a daily SC injection of either ginsenoside M1 (20 mg/kg) or vehicle for 5 successive days. (FIG. 7A) The tumor volume was determined by measurement of the length (L) and width (W) of the tumor and calculated as tumor volume (mm3)=(L×W^2)/2. (FIG. 7B) The tumor weight was measured after the mice were scarified. (FIG. 7C) The body weight of mice was recorded. The data were expressed as mean±SD; n=6. ** indicates a significant difference at the level of p<0.01, compared to vehicle-control mice. (One-way ANOVA with Dunnett's multiple comparisons test).
To evaluate the anti-cancer activity of ginsenoside M1 in vivo, human oral cancer xenografts were used. Six-week-old male congenital athymic BALB/c nude (nu/nu) mice were purchased from BioLASCO Taiwan Co., Ltd (Ilan, Taiwan), and housed in a room under controlled temperature (23±3° C.) and relative humidity (50±5%). Animal experiments were performed with the approval of the Institutional Animal Care and Use Committee of the National Ilan University (approval number: No. 106-13) according to the NIH Guide for the Care and Use of Laboratory Animals. Xenografts mice were established by subcutaneous (SC) injection of 2×10^6 human oral cancer cells SAS (in 75 μl PBS+75 μl Matrigel) on the backs of the nude mice. After the tumor has reached about 40˜60 mm^3 in size, the mice were randomized into six groups (six mice each): (1) oral vehicle control; (2) oral 30 mg/kg ginsenoside M1; (3) oral 60 mg/kg ginsenoside M1; (4) oral 90 mg/kg ginsenoside M1; (5) SC vehicle control; (6) SC 20 mg/kg ginsenoside M1. The mice were given a daily oral administration or SC injection of either vehicle or ginsenoside M1 for 5 successive days. The mice were scarified at 24 h after received the last dose of ginsenoside M1 or vehicle. The tumor volume (TV) was determined by measurement of the length (L) and width (W) of the tumor. The TV on day n (TVn) was calculated as TV (mm3)=(L×W^2)/2. The relative tumor volume on day n (RTVn) versus day 0 was expressed according to the following formula: RTVn=TVn/TV0. […] The data were expressed as mean±SD; n=6. ** and *** indicate a significant difference at the level of p<0.01 and p<0.001, respectively, compared to vehicle-control mice. (One-way ANOVA with Dunnett's multiple comparisons test).

[2] = Body weight of SAS xenograft mice; assay type: in vivo, BALB/c nude (nu/nu) mice; settings: 5 successive days
Protocol: as §1, with “(One-way ANOVA with Dunnett's multiple comparisons test).” left out
as §2, with “Human oral cancer cell line SAS cells Xenografts mice with tumor size around 40˜60 mm^3 were given a daily SC injection of either ginsenoside M1 (20 mg/kg) or vehicle for 5 successive days.” left out, “(One-way ANOVA with Dunnett's multiple comparisons test).” left out
To evaluate the anti-cancer activity of ginsenoside M1 in vivo, human oral cancer xenografts were used. […] The TV on day n (TVn) was calculated as TV (mm3)=(L×W^2)/2. […]

[3] = test system: human oral cancer cells OECM-1; assay: Colony formation of OECM-1 cells; assay type: cell-based; settings: 5˜20 μg/ml, 10 days
Protocol: FIGS. 4A-4B show ginsenoside M1 reduced the colony formation ability of human oral cancer cells. Human oral cancer cell line SAS cells (FIG. 4A) or OECM-1 cells (FIG. 4B) were incubated for 10 days with ginsenoside M1 (5˜20 μg/ml) or vehicle (0.1% DMSO). The cells were fixed in 4% ice-cold paraformaldehyde and stained with 0.1% crystal violet, and the colonies were counted. The data were expressed as mean±SD; n=4. * and *** indicate a significant difference at the level of p<0.05 and p<0.001, respectively, compared to vehicle-control cells. (One-way ANOVA with Dunnett's multiple comparisons test).
Plate 150 human oral cancer cells SAS or OECM-1 per 6-cm dish in 3 ml of culture medium and were grown overnight at 37° C. in a 5% CO2 incubator. The cells were incubated for 10 days with ginsenoside M1 (5˜20 μg/ml) or vehicle. The cells were changed for fresh medium containing the same concentration of ginsenoside M1 at day 5. The cells were fixed in 4% ice-cold paraformaldehyde for 15 min at […], and stained with 0.1% crystal violet 10 min at room temperature. […] The data were expressed as mean±SD; n=4. * and *** indicate a significant difference at the level of p<0.05 and p<0.001, respectively, compared to vehicle-control cells. (One-way ANOVA with Dunnett's multiple comparisons test).

With `CC(C)=CCC[C@](C)(O[C@@H]1OC(CO)[C@@H](O)[C@@H](O)C1O)[C@H]1CC[C@]2(C)C1[C@H](O)CC1[C@@]3(C)CC[C@H](O)C(C)(C)C3CC[C@]12C` (stereo partly drawn) [ginsenoside M1, 20-O-β-D-glucopyranosyl-20(S)-protopanaxadiol] the “tumor size compared to vehicle control group” value ([1]; SC injection 20 mg/kg daily) was “significantly reduced”, the “tumor weight compared to vehicle control group” value ([1]; SC injection 20 mg/kg daily) was “significantly reduced” and the “tumor size compared to vehicle control group” value ([1]; oral 30 mg/kg daily) was “did not significant reduce”. For the same compound, the “tumor weight compared to vehicle control group” value ([1]; oral 30 mg/kg daily) was “did not significant reduce”, the “tumor size compared to vehicle control group” value ([1]; oral 60 mg/kg daily) was “did not significant reduce” and the “tumor weight compared to vehicle control group” value ([1]; oral 60 mg/kg daily) was “did not significant reduce”. For the same compound, the “tumor size compared to vehicle control group” value ([1]; oral 90 mg/kg daily) was “significantly reduced”, the “body weight of mice” value ([2]; SC injection 20 mg/kg daily) was “did not significantly affect” and the “body weight of mice” value ([2]; oral 30-90 mg/kg daily) was “did not significantly affect”. The “colony formation ability of OECM-1 cells” value [3] was “dose-dependently inhibited”.

— patent publication US11524021B2, “Use of ginsenoside M1 for manufacturing medicament for treating oral cancer” (priority 2018, dated 2022)
